{"source": "patent US5532229A", "about": "“Topical administration of vitamin D to mammals” (priority 1994, dated 1996)", "key": {"[1]": {"test": "Experiment 5: toxic effects after 2 weeks of high doses of dermal or oral vitamin D3", "type": "in vivo, Male Wistar rats", "method": "Toxicity: Long-term effects of increasing doses of vitamin D3 given dermally or by gastric tube.\nThis experiment was to compare potential toxic effects of vitamin D3 given for a 2 wk period, at the near-fatal dose of 800 μg per day by gastric tube, or by dermal administration at 800 μg/day or 2600 μg/day. Another goal was find evidence of saturable dermal uptake by including [^14 C]-vitamin D3 to monitor its removal from the skin at the high doses of vitamin D3.\nMale Wistar rats, 190±10 g were obtained and divided into three groups of 7. They were treated for 2 weeks with one the following: 2000 nmol/day of vitamin D3 by gastric tube; 800 μg/day applied to a 2×2 cm patch of skin on the back; 2600 μg/day skin. The day before killing, 66,000 counts per minute of [^14 C]-vitamin D3 was applied along with the dermal dose to permit a determination of uptake from the skin. The rats were killed after two weeks for analysis of serum, urine, kidney, and aorta. The calcium in urine and acid-treated homogenate of kidney was measured by chemical colorimetry; aorta calcium was measured by treating with nitric acid measuring calcium by atomic absorption."}, "[2]": {"test": "Experiment 3: serum 1,25(OH)2 D3 during changes in dietary calcium", "type": "in vivo, Male Wistar rats", "text": "Efficacy in the long-term: ability of oral and dermal vitamin D3 delivery to influence serum 1,25(OH)2 D3 levels in response to changes in dietary calcium.\nMale, Wistar rats were obtained at 120-130 g, and placed on a 0.01% calcium, 0.7% phosphate diet that was vitamin D deficient (Teklad Test Diets, Madison, WI) this was for one week to help deplete vitamin D stores. For the next three weeks the rats were fed the vitamin D-deficient diet, but with normal, 0.5%, calcium. […]\n(§1) Biochemical measurements. 1,25(OH)2 D3 in serum was measured by calf-thymus receptor-binding assay after initial purification of 1,25(OH)2 D3 with C18-OH cartridges (5). For the serum volumes that were minimal, serum was measured out in 50 μL increments, and the final result was adjusted for the volume of sample analyzed. […] The material eluting as 1,25(OH)2 D3 was evaporated and redissolved in acetonitrile: water for further purification with C18-OH cartridges and quantitation by thymus receptor assay, as described for serum. […]"}, "[3]": {"test": "Experiment 3: vitamin D-binding capacity of serum (specific uptake of [3H]-25(OH)D3)", "type": "in vivo, rat", "details": "6 weeks", "method": "Male, Wistar rats were obtained at 120-130 g, and placed on a 0.01% calcium, 0.7% phosphate diet that was vitamin D deficient (Teklad Test Diets, Madison, WI) this was for one week to help deplete vitamin D stores. For the next three weeks the rats were fed the vitamin D-deficient diet, but with normal, 0.5%, calcium. Starting with these 3 weeks, the rats were divided into four vitamin D3 -treatment groups, initially, nine rats per group: group a) supplemented once weekly with 0.6 μg vitamin D3 (average dose, 0.08 μg/day); group b) supplemented once every second day with vitamin D3 to provide 2 nmol/day, i.e., each dose was 4 nmol of vitamin D3; group c) supplemented once every second day with vitamin D3 to provide 8 μg/day. The preceding groups all received the vitamin D3 through an infant-feeding tube inserted through the mouth into the stomach. One group, d), received its vitamin D3 in the ethanol applied onto a shaved 2 cm×2 cm patch of skin on the back, this was done every second day to provide vitamin D3 at 8 μg/day. The volume of each dose of vitamin D3 given was adjusted so that the stated doses are per 250 g body weight. Over a second 3-week period while maintaining the described vitamin D3 dosing regimens, diet calcium content was changed weekly and blood sampling was started (that is, changes in calcium and sampling was from weeks 4 to 6, inclusive, of receiving the appropriate vitamin D3 supplement). Diet calcium was first dropped to 0.01% then raised to 1.5% and finally dropped again to 0.01%. For each week of dietary calcium manipulation, blood was obtained at day zero (the day of but just prior to the change in calcium), and days 1, 3, and 7 after the change. During the first week, 0.5 mL of blood was taken on the first two of these days and anticoagulated with heparin, the cells were isolated and resuspended in normal rat plasma and reinjected into the femoral vein. […] For the subsequent samplings, only 0.2-0.3 mL of blood was taken by bleeding from the tail into precalibrated microcentrifuge tubes. […]\nas §1, with “serum. Renal 24-hydroxylase was measured by incubating mitochondria with [^3 H]-25(OH)D3 as substrate (Vieth and Fraser, J Biol Chem. 254:12455-12460;1979).” for “serum.”"}, "[4]": {"details": "14 days; cited from earlier work"}}, "note": "“Also recorded” adds a separate entry of the source."}
{"smiles": "C=C1CC[C@H](O)C/C1=C/C=C1\\CCC[C@]2(C)[C@@H]([C@H](C)CCCC(C)C)CC[C@@H]12", "note": "[vitamin D3]", "values": [{"measurement": "urinary calcium (above the usual rat normal)", "setting": "[1]; all treatments", "value": "> 1", "unit": "μmol/mmol creatinine"}, {"measurement": "serum calcium (above the normal rat value)", "setting": "[1]; all treatments, 2 weeks", "value": "> 2.4", "unit": "mmol/L"}, {"measurement": "calcium accumulation in kidney and aorta", "setting": "[1]; by gastric tube, 2 weeks", "value": "substantial in both the kidney and the aorta"}, {"measurement": "Urine Ca/create Day 4", "setting": "[1]; dermal 800 μg/day", "value": 7.9}, {"measurement": "Urine Ca/create Day 13", "setting": "[1]; dermal 800 μg/day", "value": 10.0}, {"measurement": "Weight gain", "setting": "[1]; dermal 800 μg/day", "value": 91, "unit": "g/2 wk"}, {"measurement": "Total Aorta Calcium", "setting": "[1]; dermal 800 μg/day, 2 weeks", "value": "< 10", "unit": "nmol"}, {"measurement": "Total Renal Calcium", "setting": "[1]; dermal 800 μg/day, 2 weeks", "value": 13.3, "unit": "µmol/L"}, {"measurement": "Urine Ca/create Day 4", "setting": "[1]; dermal 2600 μg/day", "value": 10.3}, {"measurement": "Urine Ca/create Day 13", "setting": "[1]; dermal 2600 μg/day", "value": 10.8}, {"measurement": "Weight gain", "setting": "[1]; dermal 2600 μg/day", "value": 76, "unit": "g/2 wk"}, {"measurement": "Total Aorta Calcium", "setting": "[1]; dermal 2600 μg/day, 2 weeks", "value": "< 10", "unit": "nmol"}, {"measurement": "Total Renal Calcium", "setting": "[1]; dermal 2600 μg/day, 2 weeks", "value": 13.3, "unit": "µmol/L"}, {"measurement": "difference in serum 25(OH)D3 between the two dermal groups", "setting": "[1]; dermal 800 vs 2600 μg/day", "value": "no statistical difference"}, {"measurement": "Weight gain", "setting": "[1]; dermal, same or higher doses, 2 wk", "value": "normal weight gain"}, {"measurement": "calcium accumulation in kidney and aorta", "setting": "[1]; dermally treated, 2 weeks", "value": "no evidence of either effect"}, {"measurement": "Urine Ca/create Day 4", "setting": "[1]; gastric 800 μg/day", "value": 12.0}, {"measurement": "Urine Ca/create Day 13", "setting": "[1]; gastric 800 μg/day", "value": 9.9}, {"measurement": "Weight gain", "setting": "[1]; gastric 800 μg/day", "value": 7, "unit": "g/2 wk"}, {"measurement": "Total Aorta Calcium", "setting": "[1]; gastric 800 μg/day, 2 weeks", "value": 361, "unit": "nmol"}, {"measurement": "Total Renal Calcium", "setting": "[1]; gastric 800 μg/day, 2 weeks", "value": 77, "unit": "µmol/L"}, {"measurement": "serum 1,25(OH)2 D3, gastric vs skin groups", "setting": "[1]; gastric, 2 weeks", "value": "lower serum 1,25(OH)2 D3 concentrations than with either skin group"}, {"measurement": "Weight gain", "setting": "[1]; near-toxic gastric dose, 2 wk", "value": "prevented the rats from gaining weight"}, {"measurement": "difference between the two routes in suppression of serum 1,25(OH)2 D3 levels", "setting": "[2]; 20 nmol/250 g/day", "value": "no significant difference between the two routes"}, {"measurement": "serum 1,25(OH)2 D3, effect of supplementation", "setting": "[2]; 8 μg/day, gastric or dermal, all levels of calcium intake", "value": "lower serum 1,25(OH)2 D3 concentrations; also recorded: lower serum 1,25(OH)2 D3 at every level of calcium intake"}, {"measurement": "Binding Capacity for 25(OH)D3", "setting": "[3]; 0.08 μg/day diet", "value": 7.1, "unit": "µmol/L"}, {"measurement": "Binding Capacity for 25(OH)D3", "setting": "[3]; 0.8 μg/day G1 (gastric)", "value": 6.93, "unit": "µmol/L"}, {"measurement": "Binding Capacity for 25(OH)D3", "setting": "[3]; 8 μg/day G1 (gastric)", "value": 7.13, "unit": "µmol/L"}, {"measurement": "Binding Capacity for 25(OH)D3", "setting": "[3]; 8 μg/day dermal", "value": 7.96, "unit": "µmol/L"}, {"measurement": "fatal oral dose", "setting": "[4]", "value": 2600, "unit": "µg/day"}]}
